In US6943924B2, “Apparatus and method for digital holographic imaging” (Ecole Polytechnique Federale de Lausanne (EPFL), priority 2001, dated 2005):

System: cultured mouse cortical neurons
Experiment: Digital holographic imaging (DHI) of glutamate-mediated morphological changes (phase/OPL signal) in neurons
Assay type: cell-based
Text: FIG. 3 presents an example of application of the present invention to image living cells in culture enclosed in a perfusion chamber 30 filled with a physiological solution 37. […] A CCD camera 35 records the hologram. The hologram is produced by the interference with a reference wave 36. A numerical procedure is then applied to reconstruct the hologram. The obtained phase-contrast image can be presented in 3D perspective, as presented for example in FIG. 4d.
From the quantitative phase-contrast image, quantitative data about the cell morphology can be obtained. The refractive index, at the wavelength of 633 nm, of the perfused solution nm=1.3336±0.0002, was measured with an Abbe refractometer. By assuming, in first approximation, a constant and homogeneous cellular refractive index ns=1.365, one can estimate that an phase of 10 degree corresponds to a cellular thickness d=0.6 μm. Using this relation between phase and thickness, phase measurements extracted from specific pixels of the quantitative phase-contrast image presented FIG. 3c, yields a thickness of 1-3 μm for the neuronal processes and of approximately 8 μm for the cell body. Even with the assumption of a homogeneous distribution of intracellular refractive index (which can be discussed given a certain degree of heterogeneity of its constituents), these estimations of cell morphology give realistic values of typical cell dimensions as described in the literature for the mouse cortical neurons presented here. Using the same assumption for refractive index of the cell, and based on a phase measurement accuracy of 0.7 degree, that is dictated by experimental opto-mechanical noise, we obtain an axial (or vertical) resolution of 40 nanometers.
As an example of application of the present invention, the present invention has been applied to study the effects of an excitatory neurotransmitter (glutamate) on the morphology of cultured mouse cortical neurons. The influence of glutamate on neuron morphology has been already described as resulting from excitotoxicity, for high concentrations (20-500 μM) and long exposures of several minutes. […] It has also been established that this effect occurs in response to the activation of N-methyl-D-aspartate (NMDA) receptors. FIG. 4a presents the temporal evolution of the phase signal measured, in real-time by DHI, in the domain delimited by a black rectangle in FIG. 4b, which presents a typical example of a quantitative phase contrast image of a living mouse cortical neuron immersed in a physiological solution. […] These pulses of pharmacological agents are indicated by black triangles in FIG. 4a. […] The concentrations of GLUT, are respectively 15 μM, 10 μM, 15 μM and 20 μM. At instants indicated by black triangles 45 and 46, 400 μM of kynurenate (KYN), a broad spectrum ionotropic glutamate receptor antagonist, has been added to GLUT. […] These OPL increases could be reproduced several times over periods of more than three hours. […] A concentration-response curve (FIG. 4c) has been established on the basis of 5 different experiments. As response amplitudes vary from cell to cell, results were normalized with respect to the maximal response which occurred at a concentration of ˜15 μM. […] Without glycine cells started to respond at glutamate concentrations higher than 15 μM and for only ˜25% of cells (vs. ˜80% in the presence of glycine). As glycine is an NMDA receptor co-agonist, this behavior further emphasizes the role these receptors in the glutamate-evoked responses. The maximum amplitude of a typical phase increase is ˜10 degree representing ˜5% of the initial cellular phase. If we assume once again a constant cellular refractive index (ns=1.365), this corresponds to an increase in the vertical (z) axis of ˜0.6 μm.

**Q.** `O=C(O)c1cc(=O)c2ccccc2[nH]1` [KYN, kynurenate] was tested. Which “effect on glutamate-evoked phase signal” value (400 μM added to GLUT) did it give?
**A.** No increase of the phase signal occurs

**Q.** Which “effect on glutamate-evoked phase signal” value (5 μM added to GLUT) does the source give for `C[C@]12N[C@H](Cc3ccccc31)c1ccccc12` [MK-801] here?
**A.** inhibited

**Q.** How did the “maximum amplitude of a typical phase increase” value turn out when `N[C@@H](CCC(=O)O)C(=O)O` [glutamate] was run?
**A.** ~10 degree

**Q.** And the “maximum phase increase as share of the initial cellular phase” value?
**A.** ~5%

**Q.** And the EC50 (20 seconds pulses, glycine (3 μM) in perfusion solutions, 5 different experiments, normalized to maximal response, read-out: EC50 of glutamate-evoked phase response (Hill equation fit of concentration-response curve))?
**A.** ~7.5 µM

**Q.** And the “phase signal on application alone” value (GLUT 15, 10, 15 and 20 μM pulses of 20 seconds)?
**A.** Marked phase increases

**Q.** What about the “increase in the vertical (z) axis” value (assuming constant cellular refractive index ns=1.365) of the same compound?
**A.** ~0.6 μm

**Q.** What about the Hill coefficient (concentration-response curve, glycine (3 μM) present) of the same compound?
**A.** 3.75±0.4

**Q.** And the “concentration at which the maximal response occurred” value (glycine (3 μM) present)?
**A.** ~15 µM

**Q.** And the cells responding (in the presence of glycine)?
**A.** ~80%

**Q.** What about the cells responding (without glycine) of the same compound?
**A.** ~25%

**Q.** And the “glutamate concentration at which cells started to respond” value (without glycine)?
**A.** higher than 15 μM
